According to US5079244A, “Substituted 3-aminosydnone imines, pharmaceutical compositions containing same, and process for administering same” (Cassella Aktiengesellschaft, priority 1989, dated 1992):
Structures can show the parent of a compound that is named as a salt.

tested on: spiral strips of the pulmonary artery of the guinea pig; test: relaxant effect on potassium-depolarized, CaCl2-contracted spiral strips of the pulmonary artery of the guinea pig; conditions: Cavia porcellus, 40 mmol/l potassium, contraction by 0.5 mmol/l CaCl2, cumulative addition, average value of 4 to 6 vessel strips, read-out: IC50: concentration of the test substance which inhibits the contraction by 50%
Method: The pharmacological action of the compounds of the formula I was determined by a modified method of Godfraind and Kaba (Arch. Int. Pharmacodyn. Ther. 196, (Suppl ) 35 to 49, 1972) and of Schuman et al. (Naunyn-Schmiedeberg'sArch. Pharmacol. 289, 409 to 418, 1975). In this connection, spiral strips of the pulmonary artery of the guinea pig are depolarized using 40 mmol/l of potassium after equilibration in calcium-free Tyrode solution. An addition of 0.5 mmol/l of CaCl2 then induces a contraction. The relaxant effect of the test substance is determined by cumulative addition in semilogarithmic graduated concentrations. The concentration of the test substance which inhibits the contraction by 50% (=IC50, mol/l) is determined from the concentration-effect curve (abscissa: --log mol/l of test substance, ordinate % inhibition of the maximum contraction, average value of 4 to 6 vessel strips).

Row | IC50 [nM] | Compound
1 | 1100 | CC1CCCC(C)N1[n+]1[n-]oc(=N)c1CSc1ccccc1 (stereo not shown) [Example 5, 3-(2,6-Dimethylpiperidino)-4-phenylthiomethylsydnone imine hydrochloride]
2 | 800 | CC1CCCC(C)N1[n+]1[n-]oc(=N)c1CSCc1ccccc1 (stereo not shown) [Example 8, 4-Benzylthiomethyl-3-(2,6-dimethylpiperidino)sydnone imine hydrochloride]

More lines, now with the values behind:

Row | Compound | IC50 [nM]
3 | N=c1o[n-][n+](N2CCOCC2)c1CSCc1ccccc1 [Example 7, 4-Benzylthiomethyl-3-morpholinosydnone imine hydrochloride] | 700
4 | CC1CCCC(C)N1[n+]1noc([N-]C(=O)c2ccccc2)c1CSCc1ccccc1 (stereo not shown) [Example 10, N-Benzoyl-4-benzylthiomethyl-3-(2,6-dimethylpiperidino)sydnone imine] | 2000
5 | CC(CSCc1ccccc1)c1c(=N)o[n-][n+]1N1CCOCC1 (stereo not shown) [Example 12, 4-(2-Benzylthio-1-methylethyl)-3-morpholinosydnone imine hydrochloride] | 500
6 | CC1CCCC(C)N1[n+]1[n-]oc(=N)c1COc1ccccc1 (stereo not shown) [Example 13, 3-(2,6-Dimethylpiperidino)-4-phenoxymethylsydnone imine hydrochloride] | 2000
7 | CCOC(=O)[N-]c1cn(N2CCOCC2)n[o+]1 [molsidomine, N-ethoxycarbonyl-3-morpholino-sydnone imine, reference compound] | > 300000
